The values below come from publication PMC6222614, “Disubstituted 4-Chloro-3-nitrophenylthiourea Derivatives: Antimicrobial and Cytotoxic Studies” (Molecules : A Journal of Synthetic Chemistry and Natural …, 2018).

The structures appear in SMILES notation. Read-outs that look alike come from different tables or passages of the source. A value given as a limit tells only on which side of the number the result lay.

Series [1] in a line: Cytotoxicity against mock-infected MT-4 cells (MTT). The class given is cell-based, human. Conditions: human, concentration reducing viability of mock-infected MT-4 cells by 50%. The method, then:
(§1) Cell line supporting the multiplication of Human Immunodeficiency Virus type-1 (HIV-1) was the CD4+ human T-cells, derived from human hematological tumors, containing an integrated HTLV-1 genome (MT-4). Cells were purchased from American Type Culture Collection (ATCC). Human Immunodeficiency Virus type-1 (HIV-1) IIIB laboratory strain was obtained from the supernatant of the persistently infected H9/IIIB cells (NIH 1983).
(§2) Exponentially growing MT-4 cells were seeded at an initial density of 1 × 10^5 cells/mL in 96-well plates in RPMI-1640 medium, supplemented with 10% fetal bovine serum (FBS), 100 units/mL penicillin G and 100 μg/mL streptomycin. Cell cultures were then incubated at 37 °C in a humidified, 5% CO2 atmosphere, in the absence or presence of serial dilutions of tested compounds. Cell viability was determined after 96 h at 37 °C by the 3-(4,5-dimethylthiazol-2-yl)-2,5-diphenyl-tetrazolium bromide (MTT) method.

Series [2] concerns HIV-1 IIIB. Description: Anti-HIV-1 activity: protection of MT-4 cells from virus-induced cytopathogenicity (MTT). Conditions: 50% protection of MT-4 cells from HIV-1 induced cytopathogenicity, MTT, 4-day incubation, read-out: HIV-1IIIB EC50. The series is classed as cell-based, Human Immunodeficiency Virus type-1.
Excerpt: as §1
The activity of compounds against HIV-1 was based on inhibition of virus-induced cytopathogenicity in MT-4 cell acutely infected with a multiplicity of infection (m.o.i.) of 0.01. Briefly, 50 μL of RPMI containing 1 × 10^4 MT-4 cells were added to each well of flat-bottom microtiter trays, containing 50 μL of RPMI without or with serial dilutions of test compounds. Then, 20 μL of a HIV-1 suspension containing 100 CCID50 were added. After a 4-day incubation at 37 °C, cell viability was determined by the MTT method.
In general terms: Cytopathic effects are the visible damage that an infection or toxin causes in cultured cells.

Series [3] concerns MT-4 cells. As to the kind of experiment: Cytotoxicity against mock-infected MT-4 cells (MTT). The class given is cell-based, human. Conditions: concentration reducing viability of mock-infected MT-4 cells by 50%, 96 h. The method, then:
as §1, §2

Series [4] has as its system CCRF-CEM. Description: Antiproliferative assay (MTT). The series is classed as cell-based, human. Conditions: concentration reducing cell proliferation by 50%, 96 h, mean of three determinations. The method, then:
(§3) Cell lines derived from human hematological tumors were: CD4+ human T-cells containing an integrated HTLV-1 genome (MT-4); CD4+ human acute T-lymphoblastic leukemia (CCRF-CEM); human splenic B-lymphoblastoid cells (WIL-2NS); human acute B-lymphoblastic leukemia (CCRF-SB). Cells were seeded at an initial density of 1 × 10^5 cells/mL in 96 well plates in RPMI-1640 medium supplemented with 10% fetal calf serum (FCS), 100 units/mL penicillin G and 100 μg/mL streptomycin.
(§4) Cell lines derived from human solid tumors were: Skin melanoma (SK-MEL-28); prostate carcinoma (DU-145). Normal tissues foreskin fibroblasts (CRL-7065) were also used. Cells were seeded at 1 × 10^5 cells/mL in 96 well plates in specific media supplemented with 10% FCS and antibiotics, as above. Cell cultures were then incubated at 37 °C in a humidified, 5% CO2 atmosphere in the absence or presence of serial dilutions of test compounds. Cell viability was determined after 96 h at 37 °C by the MTT method.

The subject of series [5] is CCRF-SB. Description: Antiproliferative assay (MTT). Conditions: concentration reducing cell proliferation by 50%, 96 h, mean of three determinations. The class given is cell-based, human. The method, then: as §3, §4
In series [6] the test system is MT-4. As to the kind of experiment: Antiproliferative assay (MTT). Conditions: concentration reducing cell proliferation by 50%, 96 h, mean of three determinations. The class given is cell-based, human. How it is done:
as §3, §4

Series [7] relates to WIL-2NS. Description: Antiproliferative assay (MTT). The class given is cell-based, human. Conditions: concentration reducing cell proliferation by 50%, 96 h, mean of three determinations. How it is done: as §3, §4
Series [8] deals with DU145. As to the kind of experiment: Antiproliferative assay (MTT). Conditions: prostate carcinoma, concentration reducing cell proliferation by 50%, 96 h. The class given is cell-based, human. How it is done:
as §4

Series [9] concerns SK-MEL-28. As to the kind of experiment: Antiproliferative assay (MTT). The series is classed as cell-based, human. Conditions: skin melanoma, concentration reducing cell proliferation by 50%, 96 h. The method, then: as §4
Series [10] relates to CRL7065. Description: Antiproliferative assay (MTT), normal cell line. The class given is cell-based, human. Conditions: normal foreskin fibroblasts, concentration reducing cell proliferation by 50%, 96 h. The method, then: as §4

The CC50 is the concentration that lowers cell viability or growth by half. By EC50 is commonly meant the concentration needed to bring the measured effect to its halfway point. In turn, `O=C1Nc2ccc(Cl)cc2[C@@](C#CC2CC2)(C(F)(F)F)O1` [Efavirenz, reference compound] gave a half-maximal cytotoxic concentration (CC50) at 96 h in series [1] of 46 µM. Besides, in series [2] (Human immunodeficiency virus 1, IIIB, MT4, 96 h), the half-maximal effective concentration (EC50) was found to be 0.002 µM.

For the compound `O=[N+]([O-])c1cc(NC(=S)Nc2ccc(Br)cc2)ccc1Cl` [Compound 6], the half-maximal cytotoxic concentration (CC50) in series [3] amounted to 6.6 µM; in series [4], 6 µM; in series [5], 8 µM; in [6], 6.6 µM; in [7], 7 µM; in series [8], 6 µM. The CC50 in [9] is 6 µM; in series [10] it was 30 µM. Moreover, the EC50 in series [2] is more than 6.6 µM.

For the compound `O=[N+]([O-])c1cc(NC(=S)Nc2ccc(F)cc2)ccc1Cl` [Compound 9], the half-maximal cytotoxic concentration (CC50) in series [3] was determined as 7 µM; in [4] it was 9.1 µM; in [5] it was 9.4 µM; in series [6], 7 µM; in series [7], 11 µM; in series [8] it was 8.4 µM. The CC50 in series [9] came to 20 µM; in [10], 22 µM. For the same compound, in [2], the EC50 was more than 7 µM.

`O=[N+]([O-])c1cc(NC(=S)Nc2ccccc2Br)ccc1Cl` [Compound 4]: the half-maximal cytotoxic concentration (CC50) came to 9.6 µM in series [3]; 22 µM in series [4]; 22 µM in [5]; 9.6 µM in series [6]; 30 µM in series [7]; 8 µM in [8]. The results for the CC50 in series [9] and in series [10] were 15 µM and 20 µM, respectively.

Take `Cc1ccc(Cl)cc1NC(=S)Nc1ccc(Cl)c([N+](=O)[O-])c1` [Compound 14]: the CC50 in series [3] was determined as 8.2 µM; in series [4], 9.4 µM; in series [5], 9.8 µM; in [6] it was 8.2 µM; in series [7], 10 µM; in [8], 7.8 µM. Further, the half-maximal cytotoxic concentration (CC50) in series [9] was 9 µM; in series [10], 18 µM. The EC50 in series [2] is more than 8.2 µM.

Regarding `O=[N+]([O-])c1cc(NC(=S)Nc2ccccc2Cl)ccc1Cl` [Compound 1], the half-maximal cytotoxic concentration (CC50) was 8.8 µM in series [3]; 13 µM in [4]; 14 µM in [5]; 8.8 µM in series [6]; 14 µM in series [7]; 7.6 µM in series [8]. For the same compound, the CC50 is 8.7 µM in series [9] and 18 µM in series [10]. For the same compound, in series [2], the EC50 was more than 8.8 µM.

In the case of `CC[C@@]1(O)C(=O)OCc2c1cc1n(c2=O)Cc2cc3ccccc3nc2-1` [Camptotecin, reference compound], the CC50 worked out at 0.003 µM in [4]; 0.004 µM in series [5]; 0.004 µM in series [6]; 0.005 µM in series [7]; 0.08 µM in [8]; 0.07 µM in [9]. The CC50 in series [10] came to 0.3 µM.

Regarding `O=[N+]([O-])c1cc(NC(=S)Nc2ccc(F)c(Cl)c2)ccc1Cl` [Compound 10], the cytotoxic concentration (CC50) came out at 7.3 µM in series [3]; 5 µM in [4]; 8.8 µM in [5]; 7.3 µM in series [6]; 7 µM in [7]; 6.5 µM in series [8]. Further, the figures for the CC50 in [9] and in series [10] were 6.6 µM and 16 µM, respectively. Besides, in series [2], the EC50 is more than 7.3 µM.

Regarding `O=[N+]([O-])c1cc(NC(=S)Nc2ccc(Cl)cc2)ccc1Cl` [Compound 3], half-maximal cytotoxicity in series [3] (CC50) was put at 7 µM. Besides, in [2], the EC50 is more than 7 µM.

`CC(NC(=S)Nc1ccc(Cl)c([N+](=O)[O-])c1)c1ccccc1` (stereo not shown) [Compound 26]: the CC50 in series [3] was determined as 16.7 µM. The EC50 in series [2] was more than 16.7 µM.

For the compound `O=[N+]([O-])c1ccc(NC(=S)Nc2ccc(Cl)c([N+](=O)[O-])c2)cc1` [Compound 18], the CC50 in series [3] is 7 µM. Also, the concentration giving a half-maximal response (EC50) in series [2] was more than 7 µM.

For the compound `O=[N+]([O-])c1cc(NC(=S)Nc2ccc(C(F)(F)F)cc2)ccc1Cl` [Compound 16], in series [3], the midpoint of cytotoxicity, the CC50, lay at 7 µM. The EC50 in series [2] is more than 7 µM.

As for `O=[N+]([O-])c1cc(NC(=S)Nc2cccc(C(F)(F)F)c2)ccc1Cl` [Compound 15], the CC50 in series [3] was 8 µM. For the same compound, the EC50 in series [2] was more than 8 µM.

On to `O=[N+]([O-])c1cc(NC(=S)Nc2cccc(Cl)c2)ccc1Cl` [Compound 2], for which, in series [3], the midpoint of cytotoxicity, the CC50, lay at 7 µM. Moreover, in series [2], the EC50 was more than 7 µM.

Compound `O=[N+]([O-])c1cc(NC(=S)Nc2cccc(Br)c2)ccc1Cl` [Compound 5] showed a cytotoxic concentration (CC50) in series [3] of 8 µM. Moreover, the EC50 in series [2] is more than 8 µM.

`O=[N+]([O-])c1cc(NC(=S)Nc2ccc(Cl)cc2Cl)ccc1Cl` [Compound 12] came in with a CC50 in [3] of 8 µM. The EC50 in series [2] was more than 8 µM.

As for `N#Cc1ccc(NC(=S)Nc2ccc(Cl)c([N+](=O)[O-])c2)cc1` [Compound 19], the half-maximal cytotoxic concentration (CC50) in [3] is 8.2 µM; in series [4], 9.1 µM; in series [5] it was 9.2 µM; in series [6] it was 8.2 µM; in [7], 10 µM; in [8], 8 µM. The half-maximal cytotoxic concentration (CC50) amounted to 9 µM in series [9] and 20 µM in series [10]. Moreover, the concentration giving a half-maximal response (EC50) in [2] was more than 8.2 µM.

`O=[N+]([O-])c1cc(NC(=S)Nc2ccccc2F)ccc1Cl` [Compound 7]: half-maximal cytotoxicity in series [3] (CC50) was put at 13 µM. The EC50 in [2] was more than 13 µM.

On to `O=[N+]([O-])c1cc(NC(=S)Nc2cccc(F)c2)ccc1Cl` [Compound 8], for which the CC50 in [3] is 9 µM. The EC50 in series [2] is more than 9 µM.

In the case of `O=[N+]([O-])c1cc(NC(=S)Nc2ccc(I)cc2)ccc1Cl` [Compound 17], the CC50 in series [3] was determined as 7.8 µM; in series [4], 6 µM; in series [5], 8.3 µM; in series [6], 7.8 µM; in series [7], 7 µM; in [8] it was 11 µM. For the same compound, the CC50 turned out to be 6 µM in [9] and 30 µM in [10]. In addition, the EC50 in series [2] is more than 7.8 µM.
